Results: patent publication US20250312469A1 (CANGET BIOTEKPHARMA, priority 2024, published 2025)
Several values for one entry are separate records, joined by “and”; a condition that tells them apart may be missing. Equal entries are not always repeated.

Tests used:
[1] = FL118 drug substance chemical stability (HPLC)
UbE2T = molecular target: T1, UbE2T (Homo sapiens, UniProt Q9NPD8); assay: UbE2T protein (WB) and mRNA (RT-PCR) in PCa cells; format: cell-based; set-up: purchased Invitrogen ProtoArray Human Protein Microarray v5.0
T1 sequence (Q9NPD8 1-197): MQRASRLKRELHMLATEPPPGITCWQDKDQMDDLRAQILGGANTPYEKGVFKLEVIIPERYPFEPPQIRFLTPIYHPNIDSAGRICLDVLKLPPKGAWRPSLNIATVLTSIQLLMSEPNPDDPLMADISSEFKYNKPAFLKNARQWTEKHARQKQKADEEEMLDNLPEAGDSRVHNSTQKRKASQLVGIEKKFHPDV
Protocol: Cells were then lysed to determine UbE2T protein expression (WB) and mRNA (real-time RT-PCR).
Twenty to fifty μg total protein from each sample (cell lysis or tumor tissue lysis) were heated at 95° C. for 5 minutes after mixing with equal volumes of 2× SDS loading buffer. […] Next, the membrane was incubated with different primary antibodies in TBS-T containing 5% BSA overnight at 4° C. in the range of dilutions from 1:500 to 1:2000 based on the antibody dilution recommended by antibody firms. After washing with TBS-T, the membrane was incubated in TBS-T buffer containing 5% skim milk and corresponding secondary antibody (1:5000) for 45-60 minutes at room temperature with shaking. Proteins of interest were detected using Western Lightning ECL-Plus (Perkin Elmer, Waltham, MA) and visualized by various times (3-120 seconds) of exposure. Actin, tubulin and/or GAPDH were detected as the internal control to normalize total protein loading for each sample.
Pertinent to this study, total RNAs were extracted from cancer cells using TRI REAGENT RT (Molecular Research Center), and 5 μg per sample was converted to cDNA with anchored oligo (dT) primers using RevertAid First Strand cDNA Synthesis Kit (Thermo Fisher Scientific, Catalog No. K1622) following the manufacturer's instructions. […] The data were analyzed using the Applied Biosystems 7300 Real Time PCR System and normalized to GAPDH.

[2] = test system: pancreatic cancer PDX14244 or PDX17624 tumors; assay: Western blots of pancreatic cancer PDX tumors after oral treatment; format: in vivo, SCID mice; details: 5 mg/kg oral; day 1-3
Protocol: The collected tumor tissues were then homogenized with untrasound and analyzed using the corresponding antibodies for DDX5, Agrin, YAP1, p-FAK, FAK, Integrin and Actin via Western blots. Actin expression is the internal control of total protein loading.
For frozen prostate cancer tissue specimens and their adjacent non-tumor tissues (if any) obtained from Roswell Park pathology network, 30-50 mg of each tissue in a 1.5 Eppendorf tube containing 500 μL of 2×SDS lysis buffer containing Tris pH 6.8+4% SDS+10% Glycerol were homogenized through ultrasound treatment for 10-15 second per time with 3-6 times until tumor tissue was lysed. After all tissues were processed, 1.5 mL tubes were centrifuged at 13,000 rom in a microcentrifuge for 1-2 min and then the supernatant in each tube was transferred into a new 1.5 mL tube for protein concentration measurement (refer to the section of “Studies with Human patient tumor specimens” for more information). […] Proteins of interest were detected using Western Lightning ECL-Plus (Perkin Elmer, Waltham, MA) and visualized by various times (3-120 seconds) of exposure. Actin, tubulin and/or GAPDH were detected as the internal control to normalize total protein loading for each sample.

human hepatocytes = assay: Cell viability (MTS) after CYP induction treatment
Protocol: Vehicle controls were treated in parallel with hepatocyte culture medium. […] (2) After the CYP induction treatment, the cells were used for a cell viability assay. […] The absorbance of formazan, which is proportional to the number of viable cells, was measured spectrophotometrically using the CellTiter 96 AQueous ONE Solution Cell Proliferation Assay. […] (3) Total RNA was isolated from the treated cells using the RNeasy mini kit (Qiagen, Valencia, CA, USA) and treated with RNase-free DNase (Qiagen) following the manufacturer's protocols. The concentration of RNA was determined using a Qubit Fluorometer with a Qubit RNA HS assay kit (Invitrogen). cDNA was synthesized from up to 1 μg of the total RNA harvested from the cells using a QuantiTect RT kit (Qiagen). Analysis of gene expression by qPCR was performed using the LightCycler 480 System (Roche Diagnostics Corporation, Indianapolis, IN, USA).

[3] = Rat toxicology/MTD, limited numbers, FL118-HPβCD complex powder suspension (Roswell Park); details: for MTD at 50 days: Sprague-Dawley, rat, in vivo, po, conservative MTD; for BASO / EOS / HCT / HGB / LYM / MCH / MCHC / MCV / MONO / MPV / NEUT / PDW / PLT / RBC / RDW-SD / RET / WBC / ALB / ALP / ALT / AMYL / BUN / CHOL / CREA / Ca / GLU / Na / PHOS / TBIL / TP: rats, oral; for ALB / ALP / ALT / AMYL / BUN / CHOL / CREA / Ca / GLU / Na / PHOS / TBIL / TP: serum
Protocol: Males and females housed separately in autoclaved polycarbonate/polysulfone microisolator cages (≤2 per cage) with autoclaved contact bedding. Environmental conditions in the animal housing room were maintained at an ambient temperature of 70° F.±3° F., relative humidity of 30%-70%, and a 12:12 light-dark cycle. Animal housing rooms were ventilated with 100% fresh, HEPA filtered air with 10-15 air changes per hour. […] Individual rats were identified via tail marking prior to dosing. Each rat received a unique identification number.
Rats were randomly assigned to 4 treatment groups consisting of 2 males and 2 females, and 1 male and 1 female for the vehicle control group.
In accordance with the Roswell Park Laboratory Animal Shared Resources (LASR) SOP, Physical examination was conducted on all rats' pre-study to evaluate general appearance, posture, behavioral status, respiratory system, skin, fur, eyes, nose, urine, feces, locomotion, and body orifices. Cage side clinical observations of experimental rats for mortality and signs of pharmacologic and/or toxicologic effects were conducted once daily in the morning on Days 1-50 of the study. Daily cage side clinical observations included but were not limited to evaluation of the general appearance, posture, behavioral status, respiratory system, skin, fur, eyes, nose, urine, feces, locomotion, and body orifices. The nature, onset, severity, and duration of all gross or visible pharmacologic or toxicologic signs were recorded. Rats were weighed and weights were recorded immediately prior to dosing, and then twice weekly and at termination, using a digital scale (Ohaus CS 2000 balance). […] Any rats in poor health were identified for further monitoring or possible euthanasia. Food consumption was qualitatively assessed daily and recorded. […] Blood samples were placed in pre-labeled serum separator tubes and in K3EDTA plastic tubes, and tightly capped. […] The following tests were conducted.
Clinical hematology: Blood samples were collected into tubes containing K3EDTA. Whole blood samples were stored on wet ice or under refrigeration (4° C.) until they were processed the same day using the IDEXX ProCyte A5088 Hematology Analyzer. The following hematopoietic parameters were evaluated for the whole blood: (1) Red Blood Cell Count (RBC, M/μL), (2) Hemoglobin (HGB, g/dL), (3) Hematocrit (HCT, %), (4) Mean Cell Volume (MCV, fL), (5) Mean Corpuscular Hemoglobin (MCH, pg), (6) Mean Corpuscular Hemoglobin Concentration (MCHC, g/dL), (7) Red Cell Distribution Width (RDW, %), (8) Reticulocytes, absolute (RET, K/μL), (9) Reticulocytes, relative (RET, %), (10) Platelet count (PLT, K/μL), (11) White Blood Cell Count (WBC, K/μL), (12) White Blood Cell Count Differential, absolute (WBCDa, L/μL), and (13) White Blood Cell Count Differential, relative (WBCDr, %).
Clinical chemistry: Blood samples were collected into serum separator tubes. Blood samples were stored at room temperature until they were centrifuged, and serum was removed. Samples were centrifuged at 3000 RPM for 15 minutes at ambient temperature.

Q: What does the source list for `CCC1(O)C(=O)OCc2c1cc1n(c2=O)Cc2cc3cc4c(cc3nc2-1)OCO4` (stereo not drawn) [FL118]?
A: Hygroscope [1]: 0.07% and 0.20% and 0.38%; purity and impurity retest [1]: still well passing the purity and impurity requirement; UbE2T mRNA (UbE2T): without inhibiting its mRNA levels; UbE2T protein (UbE2T): inhibits UbE2T protein in a dose- and time-dependent manner; DDX5, Agrin, YAP1, p-FAK, Integrin in PDX tumors [2]: more profound decrease; % of Vehicle-treated Cells (human hepatocytes; donor 1, 0.01 μM): 91%; Formazan Absorbance Mean (human hepatocytes; donor 1, 0.01 μM): 1.48; % of Vehicle-treated Cells (human hepatocytes; donor 1, 0.1 μM): 73%; Formazan Absorbance Mean (human hepatocytes; donor 1, 0.1 μM): 1.20; % of Vehicle-treated Cells (human hepatocytes; donor 1, 1 μM): 31%; Formazan Absorbance Mean (human hepatocytes; donor 1, 1 μM): 0.512; cytotoxicity (human hepatocytes; donor 1, 0.1 and 1 μM): dose-dependent cytotoxicity; % of Vehicle-treated Cells (human hepatocytes; donor 2, 0.001 μM): 103%; Formazan Absorbance Mean (human hepatocytes; donor 2, 0.001 μM): 1.53; % of Vehicle-treated Cells (human hepatocytes; donor 2, 0.005 μM): 101%; Formazan Absorbance Mean (human hepatocytes; donor 2, 0.005 μM): 1.51; % of Vehicle-treated Cells (human hepatocytes; donor 2, 0.01 μM): 99%; Formazan Absorbance Mean (human hepatocytes; donor 2, 0.01 μM): 1.48; cytotoxicity (human hepatocytes; donor 2, 0.001 to 0.01 μM): No cytotoxicity; % of Vehicle-treated Cells (human hepatocytes; donor 3, 0.025 μM): 94%; Formazan Absorbance Mean (human hepatocytes; donor 3, 0.025 μM): 1.63; % of Vehicle-treated Cells (human hepatocytes; donor 3, 0.05 μM): 104%; Formazan Absorbance Mean (human hepatocytes; donor 3, 0.05 μM): 1.80; cytotoxicity (human hepatocytes; donor 3, 0.025 and 0.05 μM): did not show cytotoxicity; gross pathology ([3]; all doses): no obvious FL118-related gross pathology macroscopic findings; clinical signs, female rats ([3]; all treatment groups): no serious adverse clinical signs; weight loss, female rats ([3]; all treatment groups): ≤ 10%; MTD at 50 days ([3]; female, female rats): ≤ 4.77 mg/kg; MTD at 50 days ([3]; male, male rats): ≥ 2.44 mg/kg; BASO ([3]; 1.56 mg/kg): 0.01-0.02 K/μL; EOS ([3]; 1.56 mg/kg): 0.04-0.07 K/μL; HCT ([3]; 1.56 mg/kg): 44.5-50.5%; HGB ([3]; 1.56 mg/kg): 14.2 to 16 g/dL; LYM ([3]; 1.56 mg/kg): 5.56-8.7 K/μL; MCH ([3]; 1.56 mg/kg): 17.8 to 18.6 pg; MCHC ([3]; 1.56 mg/kg): 31.2 to 32.1 g/dL; MCV ([3]; 1.56 mg/kg): 56.1 to 58.6 fL; MONO ([3]; 1.56 mg/kg): 0.19-0.58 K/μL; MPV ([3]; 1.56 mg/kg): 7.9 to 8.1 fL; NEUT ([3]; 1.56 mg/kg): 0.38-1.37 K/μL; PDW ([3]; 1.56 mg/kg): 9.2 to 10 fL; PLT ([3]; 1.56 mg/kg): 864-1070 K/μL; RBC ([3]; 1.56 mg/kg): 7.67-8.73 M/μL; RDW-SD ([3]; 1.56 mg/kg): 30 to 33.7 fL; RET ([3]; 1.56 mg/kg): 401-524 K/μL; WBC ([3]; 1.56 mg/kg): 6.5-10.7 K/μL; BASO ([3]; 3.05 mg/kg): 0.01-0.04 K/μL; EOS ([3]; 3.05 mg/kg): 0.02-0.1 K/μL; HCT ([3]; 3.05 mg/kg): 34.6-46.5%; HGB ([3]; 3.05 mg/kg): 11.8 to 14.8 g/dL; LYM ([3]; 3.05 mg/kg): 4.83-6.03 K/μL; MCH ([3]; 3.05 mg/kg): 18.4 to 19.2 pg; MCHC ([3]; 3.05 mg/kg): 31.8 to 34.1 g/dL; MCV ([3]; 3.05 mg/kg): 55.6 to 57.8 fL; MONO ([3]; 3.05 mg/kg): 0.09-0.43 K/μL; MPV ([3]; 3.05 mg/kg): 7.6 to 7.8 fL; NEUT ([3]; 3.05 mg/kg): 0.92-1.42 K/μL; PDW ([3]; 3.05 mg/kg): 9.4 to 9.9 fL; PLT ([3]; 3.05 mg/kg): 665-1259 K/μL; RBC ([3]; 3.05 mg/kg): 6.15-8.04 M/μL; RDW-SD ([3]; 3.05 mg/kg): 29.3 to 35.3 fL; RET ([3]; 3.05 mg/kg): 208-625 K/μL; WBC ([3]; 3.05 mg/kg): 6.0-7.9 K/μL; ALB ([3]; 1.56 mg/kg): 3.4 to 4.4 g/dL; ALP ([3]; 1.56 mg/kg): 111-239 U/L; ALT ([3]; 1.56 mg/kg): 63-134 U/L; AMYL ([3]; 1.56 mg/kg): 1547-2358. U/L; BUN ([3]; 1.56 mg/kg): 15 to 20 mg/dL; CHOL ([3]; 1.56 mg/kg): 89 to 111 mg/dL; CREA ([3]; 1.56 mg/kg): 0.1 to 0.5 mg/dL; Ca ([3]; 1.56 mg/kg): 11.2 to 11.6 mg/dL; GLU ([3]; 1.56 mg/kg): 206 to 296 mg/dL; Na ([3]; 1.56 mg/kg): 143 to 154 mmol/L; PHOS ([3]; 1.56 mg/kg): 10.8 to 13.2 mg/dL; TBIL ([3]; 1.56 mg/kg): 0.2 to 0.8 mg/dL; TP ([3]; 1.56 mg/kg): 6.2 to 6.7 g/dL; ALB ([3]; 3.05 mg/kg): 3.6 to 4.3 g/dL; ALP ([3]; 3.05 mg/kg): 37-168 U/L; ALT ([3]; 3.05 mg/kg): 85-111 U/L; AMYL ([3]; 3.05 mg/kg): 1614-2162. U/L; BUN ([3]; 3.05 mg/kg): 15 to 21 mg/dL; CHOL ([3]; 3.05 mg/kg): 38 to 87 mg/dL; CREA ([3]; 3.05 mg/kg): 0.1 to 0.5 mg/dL; Ca ([3]; 3.05 mg/kg): 11.3 to 11.9 mg/dL; GLU ([3]; 3.05 mg/kg): 282 to 438 mg/dL; Na ([3]; 3.05 mg/kg): 147 to 154 mmol/L; PHOS ([3]; 3.05 mg/kg): 4.1 to 10.5 mg/dL; TBIL ([3]; 3.05 mg/kg): 0.3 to 0.7 mg/dL; TP ([3]; 3.05 mg/kg): 5.4 to 6.3 g/dL; mortality ([3]; weekly oral gavage, 7 doses): No mortality occurred
